Results published in patent publication US20250186461A1, “METHODS AND COMPOSITIONS FOR TREATING AND/OR PREVENTING HERNIAS” (Northwestern University, priority 2023, published 2025).
“Also recorded” adds a separate entry of the source.

Key:
Arom^hum mice = assay: Hernia prevention in Arom^hum mice (treatment before hernia formation); type: in vivo, mouse; conditions: for hernia formation / hernia size: male Arom^hum mice, 12-week treatment started at 3-3.5 weeks of age (before hernia formation)
Excerpt: Our study design is robust, utilizing Arom^hum mice with endpoints examined after treatment with placebo or anti-P4/PGR, and compared to those of WT littermates using 2 different tissue sites: UAM and LAM (normal or weakened/herniated). Inguinal hernia affects predominantly men vs. women (10:1 ratio). Inguinal hernias are unique to male mice and aged men. […] Here, we will focus on the effects of P4/PGR action on skeletal muscle integrity and hernia formation in males, and our work will be carried out in male mice or tissues primarily from men over 50 years of age. We will use mouse or human tissues or primary cells to closely recapitulate in vivo pathology.
(§1) The mouse scrotum is connected to the peritoneal cavity with a narrow funicular (or inguinal) canal, with walls composed of LAM tissue. Structurally normal LAM tissue is essential to maintain the tone of this canal and prevent herniation of the bowel.
Experiment 1a1: Does the addition of P4 to E2 treatment accelerate LAM fibrosis and hernia formation in WT mice? […] We hypothesize that this effect is primarily mediated by the E2 induction of PGR expression in LAM fibroblasts. […] If this were true, the addition of pharmacologic quantities of P4 (75 mg/pellet for 12-week release)^73 to E2 (0.3 mg/pellet for 12-week release)^23-25 in WT mice should accelerate this phenotype. […] See Statistical Methods above for sample size calculation. Hernia surface area will be measured using a digital caliper and calculated as previously described (length×width)^19. At the designated endpoints, LAM and UAM (control) from each mouse will be resected, with one-half of the tissue snap-frozen in liquid nitrogen, and the other half fixed in 4% phosphate-buffered paraformaldehyde for histological and IHC analyses (see below). All tissue and serum (for P4/E2 levels) samples will be collected between 10:00 AM and noon to avoid possible variability in daily hormone fluctuations. […] We will continue to complete the rest of the proposed study in this subaim. We will also assess whether and extent of muscle fibrosis and atrophy will be induced in P4+E2-induced large hernias and E2-induced small hernias. […] P4 antagonists show various levels of selectivity for PGR. […] The use of 3 distinct P4/PGR antagonists with different properties will establish the role of PGR in muscle fibrosis and hernia.
Hernias will be classified as small, medium, or large if the bulging area through muscle tissue is 125-175 mm^2, 175-225 mm^2, or >225 mm^2, respectively. […] We will assess whether muscle fibrosis, atrophy, and hernia are arrested or reversed. […] Hernia size will be measured. After completion of treatment, the mice will be dissected, and LAM, UAM (control), and serum will be collected. A total of 100 mg of tissue (LAM and UAM) will be obtained and frozen for measurement of tissue E2/P4.

WT mice = assay: E2/P4-induced hernia formation in WT mice; type: in vivo, mouse; conditions: WT male mice, concurrent treatment with P4+E2
Excerpt: as §1, with “All placebo-treated Arom^hum mice developed hernias starting from 5 weeks of age. None of the WT littermates developed hernias. […] The” for “The”
Experiment 1a1: Does the addition of P4 to E2 treatment accelerate LAM fibrosis and hernia formation in WT mice? It was shown that treatment of male WT mice with extremely high doses of systemic estrogens starting around or after the onset of puberty caused inguinal hernia in one third to half of these animals^23-25. We hypothesize that this effect is primarily mediated by the E2 induction of PGR expression in LAM fibroblasts. Male mice have readily detectable P4 levels in the circulation and LAM tissue to activate PGR in LAM fibroblasts (FIG. 6). If this were true, the addition of pharmacologic quantities of P4 (75 mg/pellet for 12-week release)^73 to E2 (0.3 mg/pellet for 12-week release)^23-25 in WT mice should accelerate this phenotype. Our ongoing preliminary study, whereby a 6-week treatment with P4+E2 induced large inguinal hernia in all WT mice (FIG. 7A), supports the following experiment. Long-term (8 weeks or longer) treatment with E2 only is anticipated to cause hernias in up to half of WT mice based on previous findings^23-25. We will determine whether P4+E2 treatment over 12 weeks will give rise to larger hernias in a higher number of mice compared with E2-only treatment. […] See Statistical Methods above for sample size calculation. Hernia surface area will be measured using a digital caliper and calculated as previously described (length×width)^19. At the designated endpoints, LAM and UAM (control) from each mouse will be resected, with one-half of the tissue snap-frozen in liquid nitrogen, and the other half fixed in 4% phosphate-buffered paraformaldehyde for histological and IHC analyses (see below). […]

SMILES	hernia formation / hernia size (Arom^hum mice; vs placebo)	prevention of P4+E2-induced large hernias (WT mice)	LAM fibroblast proliferation in vivo (Ki67 IHC staining) (Arom^hum mice; Arom^hum mice, placebo or RU486, n=6)	LAM tissue fibrosis, ECM deposition and myocyte atrophy (Masson's trichrome staining) (Arom^hum mice; Arom^hum mice, vs placebo)	PGR-positive fibroblasts in LAM tissue (PGR IHC staining) (Arom^hum mice; Arom^hum mice, vs placebo, n=10)	scrotal area (Arom^hum mice; RU486-treated Arom^hum mice vs WT littermates)
CC(=O)O[C@]1(C(C)=O)CC[C@H]2[C@@H]3CCC4=CC(=O)CCC4=C3[C@@H](c3ccc(N(C)C)cc3)C[C@@]21C [UPA, Ulipristal acetate]	prevented hernia formation in Arom^hum mice; also recorded: also prevented hernia formation	–	–	–	–	–
CC#C[C@]1(O)CC[C@H]2[C@@H]3CCC4=CC(=O)CCC4=C3[C@@H](c3ccc(N(C)C)cc3)C[C@@]21C [RU486, Mifepristone]	prevented hernia formation in Arom^hum mice; also recorded: strikingly reduced hernia size or entirely prevented hernia development in all Arom^hum mice	completely prevented	blocked	prevents LAM fibrosis, excessive ECM deposition or myocyte atrophy; also recorded: prevented LAM tissue fibrosis and atrophy in all treated Arom^hum mice	much fewer fibroblasts with PGR IHC staining; also recorded: severely reduced numbers of PGR-positive fibroblasts	slightly larger than that of WT littermates but was maintained within the upper limit of normal with no evidence of herniation
